Numbered stars: 1 amine (or outer) side, 2 acyl side, 3 side chain; on linkers, the order of the positions; unused ones are H or OH. Square brackets hold non-standard residues; d marks the D form. Side chains are listed from the residue outwards. Peptide text beside a SMILES is read from it. * marks the point of attachment. DOTA = O=C(O)CN1CCN(CC(=O)O)CCN(CC(=O)*)CCN(CC(=O)O)CC1; NH(2-(imidazol-4-yl)ethyl) = c1ncc(CCN*)[nH]1; Suc = O=C(CCC(=O)[*:2])[*:1]

Data set [1] addresses somatostatin receptors on AR42J cells (rat). The data set can be described thus: apparent IC50, competitive binding on AR42J cells against 111In(DTPA-octreotide), RT 3 h.
The target of data set [2] is RIIα dimers (Homo sapiens, UniProt P13861). The note with it: read-out: affinity for RIIα dimers; cited from earlier work.
A short description of data set [3]: Stability of ^18F-labeled IMP 466 in human serum (RP-HPLC). It is filed as in vitro ADME. The note with it: 37° C., 4 h. The protocol: Ten μL of the ^18F-labeled IMP 466 was incubated in 500 μL of freshly collected human serum and incubated for 4 h at 37° C. Acetonitrile was added and the mixture was vortexed followed by centrifugation at 1000×g for 5 min to precipitate serum proteins. The supernatant was analyzed on RP-HPLC as described above.

For data set [4] the following is noted: complexed with ^177Lu or ^205/206Bi; cited from earlier work.
Data set [5] concerns CEA-expressing LS174T tumors. The note with it: mouse, in vivo.
Experimental: One or two hours after the injection of the radiolabeled peptide, PET/CT images were acquired and the biodistribution of the radiolabeled peptide was determined. Uptake in the LS174T tumor was compared with that in an s.c. CEA-negative SK-RC 52 tumor.
Experiments were performed in male nude BALB/c mice (6-8 weeks old), weighing 20-25 grams. Mice received a subcutaneous injection with 0.2 mL of a suspension of 1×10^6 LS174T-cells, a CEA-expressing human colon carcinoma cell line (American Type Culture Collection, Rockville, Md., USA).
The percentage-injected dose per gram tissue (% ID/g) was calculated.
LS174T tumors were pretargeted by injecting 1.0, 2.5, 5.0 or 10.0 nmol TF2 (160, 400, 800 or 1600 μg).
In the right flank an s.c. LS174T tumor was induced, while at the same time in the same mice 1×10^6 SK-RC 52 cells were inoculated in the left flank to induce a CEA-negative tumor.
Mice were fasted during 10 hours prior to the injection and anaesthetized and kept warm at 37° C. until euthanasia, 1 h postinjection.
Data set [6] relates to AR42J tumors. The data set can be described thus: Biodistribution in mice with s.c. AR42J tumors. It is filed as in vivo, nude BALB/c mice. The note with it: 2 h p.i. Here is the method: Male nude BALB/c mice (6-8 weeks) were injected subcutaneously in the right flank with 0.2 mL AR42J cell suspension of 10^7 cells/mL. Approximately two weeks after tumor cell inoculation when tumors were 5-8 mm in diameter, 370 kBq ^18F- or ^68Ga-labeled IMP 466 was administered intravenously (n=5). Separate groups (n=5) were injected with a 1,000-fold molar excess of unlabeled IMP 466. One group of three mice was injected with unchelated [Al^18F]. All mice were killed by CO2/O2 asphyxiation 2 h post-injection (p.i.). Organs of interest were collected, weighed and counted in a gamma counter. The percentage of the injected dose per gram tissue (% ID/g) was calculated for each tissue. The animal experiments were approved by the local animal welfare committee and performed according to national regulations.

somatostatin receptors on AR42J cells (rat), sequence (P30680 whole entry): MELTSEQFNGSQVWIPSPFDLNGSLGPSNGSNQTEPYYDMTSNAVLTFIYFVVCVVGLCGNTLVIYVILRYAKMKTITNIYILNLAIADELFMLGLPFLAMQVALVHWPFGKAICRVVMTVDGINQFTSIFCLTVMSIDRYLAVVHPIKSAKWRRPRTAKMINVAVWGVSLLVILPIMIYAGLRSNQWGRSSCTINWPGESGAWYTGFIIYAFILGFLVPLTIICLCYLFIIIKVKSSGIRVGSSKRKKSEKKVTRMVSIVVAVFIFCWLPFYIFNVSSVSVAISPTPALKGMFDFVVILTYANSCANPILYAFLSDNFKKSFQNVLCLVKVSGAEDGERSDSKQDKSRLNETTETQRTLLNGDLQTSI
RIIα dimers, sequence (P13861 whole entry): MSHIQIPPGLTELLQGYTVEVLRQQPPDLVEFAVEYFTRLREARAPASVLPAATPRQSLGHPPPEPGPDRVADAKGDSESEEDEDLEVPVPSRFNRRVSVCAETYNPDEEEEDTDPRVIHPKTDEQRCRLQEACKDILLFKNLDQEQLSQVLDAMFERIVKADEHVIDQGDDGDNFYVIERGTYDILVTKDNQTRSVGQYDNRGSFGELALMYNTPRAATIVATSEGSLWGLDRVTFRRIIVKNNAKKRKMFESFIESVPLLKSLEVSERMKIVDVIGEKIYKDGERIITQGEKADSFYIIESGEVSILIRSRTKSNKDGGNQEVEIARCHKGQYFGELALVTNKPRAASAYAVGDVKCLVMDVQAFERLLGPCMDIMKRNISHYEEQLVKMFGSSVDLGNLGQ

For orientation: IC50 means the concentration that inhibits the measured activity by half. For “Al19F(IMP 466): NOTA-D-Phe-Cys-Phe-D-Trp-Lys-Thr-Cys-Throl complexed with aluminium fluoride (19F) (peptide)”, the 50% inhibitory concentration (IC50) in data set [1] came out at 3.6 nM.
Consider “17 residue synthetic AD, SEQ ID NO: 8 QIEYLAKQIVDNAIQQA [AKAP-IS]”, for which the Kd in data set [2] is 0.4 nM.
Consider `C[C@@H](O)[C@@H]1NC(=O)[C@H](CCCCN)NC(=O)[C@@H](Cc2c[nH]c3ccccc23)NC(=O)[C@H](Cc2ccccc2)NC(=O)[C@@H](NC(=O)[C@@H](Cc2ccccc2)NC(=O)CN2CCN(CC(=O)O)CCN(CC(=O)O)CC2)CSSC[C@@H](C(=O)N[C@H](CO)[C@@H](C)O)NC1=O` [Al^18F(IMP 466)], for which, in data set [3], the “release of ^18F after incubation in human serum” value is on record as “did not show release of ^18F”.
With “69Ga(IMP 466): NOTA-D-Phe-Cys-Phe-D-Trp-Lys-Thr-Cys-Throl complexed with 69Ga (peptide)”, the IC50 in data set [1] amounted to 13 nM.
In the case of `O=C(O)CN1CCN(CC(=O)O)CCN(CC(Cc2ccc([N+](=O)[O-])cc2)N(CC(=O)O)CC(=O)O)CC1` (stereo not drawn) [C-NETA], in data set [4], the stability in serum result is “up to 14 days”.
Regarding `NC(=O)[C@@H](CCCCNC(=O)CNC(=O)CCC(=O)NCCc1c[nH]cn1)NC(=O)[C@@H](CCC(=O)O)NC(=O)[C@@H](CCCCNC(=O)CNC(=O)CCC(=O)NCCc1c[nH]cn1)NC(=O)[C@@H](Cc1ccc(O)cc1)NC(=O)CN1CCN(CC(=O)O)CCN(CC(=O)O)CCN(CC(=O)O)CC1` [IMP 288, DOTA-D-Tyr-D-Lys(HSG)-D-Glu-D-Lys(HSG)-NH2] ({DOTA}-[dY][dK]([Gly-Suc-NH(2-(imidazol-4-yl)ethyl)])[dE][dK]([Gly-Suc-NH(2-(imidazol-4-yl)ethyl)])-NH2), the “time to maximum accretion in the tumor” value in data set [5] is no more than 1 h.
In the case of `[18F][Al+2]` [[Al^18F]], the “uptake in the bone” value in data set [5] stood at 50.9±11.4 % ID/g. Besides, in data set [6], the bone uptake is recorded as 36.9±5.0 % ID/g.
As to 115In(DTPA-octreotide) (peptide), the half-maximal inhibitory concentration (IC50) in data set [1] was 6.3 nM.

Values taken from patent publication US20170007727A1, “METHODS OF IMAGING WITH Ga-68 LABELED MOLECULES” (Immunomedics, Inc., priority 2015, published 2017).
